For one assay, the system named is Candida albicans. The assay is described as follows: Antifungal activity of herbal black dye (disc, inhibition zone). It is filed as cell-based. The note with it: 25 mg/disc.
The test system of another assay is Aspergillus niger. Described as above. It is filed as cell-based. The note with it: 25 mg/disc.

For `COC1=CC(=O)C[C@@H](C)[C@]12Oc1c(Cl)c(OC)cc(OC)c1C2=O` [Griseofulvin], the inhibition zone in the assay on Candida albicans turned out to be 8 mm; in the assay on Aspergillus niger, 10 mm.

The values above are taken from patent US20060143838A1, “Herbal dye and process of preparation thereof” (COUNCIL OF SCIENTIFIC & INDUSTRIAL RESEARCH, priority 2004, published 2006).
